Consider one molecule from patent US6437128B1, “Cribrostatins 3-5” (Arizona Board of Regents, priority 2001, dated 2002).

Holding throughout (assay): Antimicrobial disk diffusion
Type in all cases: cell-based
On the technique in general: In agar diffusion tests the substance spreads into inoculated agar from a disc or well.

Assay [1] relates to Staphylococcus aureus (ATCC 29213).
For assay [2], the system named is Enterococcus faecalis (ATCC 29212).
Assay [3] has as its system Bacillus subtilis (Presque Isle 620).
Assay [4] deals with Stenotrophomonas maltophilia (ATCC 13637).
Assay [5] deals with Group A Streptococcus (clinical isolate).
Assay [6] concerns Enterobacter cloacae (ATCC 13047).
In assay [7] the test system is Micrococcus luteus (Presque Isle 456).
In assay [8] the test system is Streptococcus pneumoniae (ATCC 6303).
The subject of assay [9] is Cryptococcus neoformans (ATCC 90112).
Assay [10] has as its system Neisseria gonorrhoeae (ATCC 49226).
The subject of assay [11] is Candida albicans (ATCC 90028).
The test system of assay [12] is Invasive S. pneumoniae (clinical isolate).
Assay [13] concerns Penicillin-resistant S. pneumoniae (clinical isolate).
Assay [14] concerns Escherichia coli (ATCC 25922).
In assay [15] the test system is Penicillin-resistant N. gonorrhoeae (clinical isolate).

For `CCOC1=C(C)C(=O)c2cc(=O)n(C)cc2C1=O` [Cribrostatin 2, cribrostatin 2, reference compound], the Minimum inhibitory concentration is given as 12.5-25 μg/disk in assay [1]; “* (No inhibition at 100 μg/disk)” in assay [2]; 25-50 μg/disk in assay [3]; “* (No inhibition at 100 μg/disk)” in assay [4]; “* (No inhibition at 100 μg/disk)” in [5]; “* (No inhibition at 100 μg/disk)” in [6]. Further, the Minimum inhibitory concentration in assay [7] was 50-100 μg/disk; in [8] it was 12.3-25 μg/disk; in assay [9] it was 12.5-25 μg/disk; in assay [10], 0.39-0.78 μg/disk; in assay [11] it was 3.12-6.25 μg/disk; in [12] it was 50-100 μg/disk. Also, the Minimum inhibitory concentration in assay [13] is listed as 25-50 μg/disk; in [14], “* (No inhibition at 100 μg/disk)”; in assay [15], 0.39-0.78 μg/disk.
